Laboratory results from patent publication US7648993B2, “Methods of treating disorders with Group I mGluR antagonists” (Brown University, priority 2001, dated 2010).
“Also recorded” adds a separate entry of the source.

Key:
[1] = test system: hippocampal area CA1 slices; test: Field potential (FP) recordings in area CA1 of rat hippocampal slices (DHPG-LTD); format: cell-based, Long Evans rats
Method: All animals were used in accordance with procedures approved by the Brown University Institutional Animal Care and Use Committee. Hippocampal slices were prepared from postnatal day 21-30 (P21-30) Long Evans rats (Charles River, Cambridge, Mass.) and mGluR5 knockout mice (Lu et al. 1997) as described previously (Huber et al. 2000). For most experiments, CA3 was removed immediately after sectioning. Slices recovered for 1-2 h at room temperature (rats) or at 30° C. (mice) in artificial cerebrospinal fluid (ACSF) containing (in mM) 124 NaCl, 5 KCl, 1.25 NaH2PO4, 26 NaHCO3, 1 MgCl2, 2 CaCl2, and 10 dextrose, saturated with 95% O2-5% CO2. For recording, slices were placed in a submersion recording chamber and perfused with 30° C. ACSF at a rate of 2 ml/min.
Synaptically evoked field potentials (FPs) were recorded from area CA1 as described previously. Sharp microelectrode and whole cell voltage-clamp recordings were made using Axoclamp 2B and Axopatch 1D amplifiers (Axon Instruments), respectively. Sharp electrodes (80-120 M Ω) were filled with 3 M K-acetate and 10 mM KCl; patch pipettes (3-7 M Ω) were filled with (in mM) 134 K-gluconate, 6 KCl, 4 NaCl, 10 HEPES, 0.2 EGTA, 4 MgATP, 0.3 TrisGTP, and 14 phosphocreatine. The pH of the internal solution was adjusted to 7.25 with KOH, and the osmolarity was adjusted to 300 mOsm with H2O or sucrose. Only experiments in which there was less than a 15% change in series resistance were included in the analysis. Waveforms were filtered at 2 kHz and acquired and digitized at 10 kHz on a PC using Experimenter's Workbench (DataWave Systems, Boulder, Colo.).
Baseline responses were collected every 10-30 s using a stimulation intensity (10-30 μA; 0.2 ms) yielding 50-60% of the maximal response. Experiments in which there was a>5% drift in the response magnitude during the 20-min baseline period before DHPG or LFS were excluded from further analysis. All experiments with mGluR5 KO mice used wildtype littermates as controls and were performed blind to the genotype, later determined by Therion (Troy, N.Y.). LFS consisted of 900 pulses at 1 Hz. PP-LFS consisted of 900 pairs of stimuli (50-ms interstimulus interval) delivered at 1 Hz. In saturation experiments, stimulus duration was increased from 0.2 to 0.4 ms during PP-LFS.
The group data were analyzed as follows: 1) the initial slopes of the FPs and excitatory postsynaptic potentials (EPSPs), or the amplitude of the excitatory postsynaptic currents (EPSCs), for each experiment were expressed as percentages of the preconditioning or DHPG baseline average, 2) the time scale in each experiment was converted to time from the onset of conditioning or DHPG, and 3) the time-matched, normalized data were averaged across experiments and expressed in the text and figures as the means ±SE. Significant differences between groups were determined using an independent t-test or ANOVA performed on a 5-min average taken 1 h after LFS or DHPG application.
R,S-DHPG and D-2-amino-5-phosphonopentanoic acid (D-AP5) was purchased from Tocris (St. Louis, Mo.); all other chemicals were from Sigma Chemical (St Louis, Mo.). DHPG was prepared as a 100 times stock in H2O, aliquoted and stored at −20° C. Fresh stocks were made once a week. A 10 times stock of AP5 was prepared in ACSF and stored at 4° C. These stocks were diluted in ACSF to achieve their final concentrations. Picrotoxin was dissolved directly into ACSF immediately before use.

[2] = test system: cultured hippocampal neurons; test: Acid strip immunocytochemistry for internalized GluR1 (AMPARs); format: cell-based, rat; settings: for effect on DHPG/mGluR-stimulated internalization of GluR1 (in words): APV 50 μM, cycloheximide 60 μM applied 15 min before DHPG; for effect on basal levels of internalized puncta (in words): without DHPG
[3] = test system: high-density cultured hippocampal neurons; test: Biotinylation and quantitative western blot of surface expressed receptors; format: cell-based, rat; settings: DHPG 50 μM, 5 min; 60 minutes later; cycloheximide 60 μM with DHPG where named
Method: To confirm the effect of mGluR activation on surface AMPARs using an alternative approach, we treated high-density cultures with DHPG (50 μM, 5 min) or control medium and surface receptors were labeled with biotin 60 minutes later. Biotinylated receptors were precipitated and the ratio of surface to total GluR1 was determined by quantitative western blotting. This biochemical analysis confirmed that surface AMPARs are reduced by DHPG treatment to only 56.8±4.0% of the value in control cultures (n=4 in each treatment group; p<0.01; FIG. 6).
Biotinylation experiments were performed as previously described^35. Briefly, 2-week-old high-density cultured hippocampal neurons were treated with either control medium or 50 μM DHPG for 5 min, and incubated for 1 h at 37° C. to allow endocytosis to occur. The sister cultures were placed on ice to stop endocytosis and washed two times with ice-cold artificial cerebrospinal fluid (ACSF) containing 124 mM NaCl, 5 mM KCl, 1.25 mM NaH2PO4, 26 mM NaHCO3, 0.8 mM MgCl2, 1.8 mM CaCl2, 10 mM dextrose, and saturated with 95% O2, 5% CO2. Cultures were then incubated with ACSF containing 1 mg/ml Sulfo-NHS-LC-Biotin (Pierce Chemical Company, Rockford, Ill.) for 30 min on ice. Cultures were rinsed in TBS to quench the biotin reaction. […] Quantitative western blots were performed on both total and biotinylated (surface) proteins using anti-GluR1 C-terminal (1:1000, Upstate Biotechnology, Lake Placid, N.Y.) and anti-NR1 N-terminal antibodies (1:1000, Chemicon). […] Digital images, produced by densitometric scans of autoradiographs on a ScanJet IIcx (Hewlett Packard, Palo Alto, Calif.) with DeskScan II software (Hewlett Packard), were quantified using NIH Image 1.60 software. The surface/total ratio was calculated for each culture, and treatment groups were compared using a paired t-test. […] For display purposes, the data are expressed as the ratio of DHPG to control values.

[4] = test system: cultured hippocampal neurons; test: Immunocytochemical localization of surface synaptic receptors (GluR2, GluR1, NR1, GABAAβ1); format: cell-based, rat; settings: for GluR1-positive synapses: cycloheximide 60 μM applied 15 min before DHPG where named
Text: We next determined if the DHPG-induced increase in internalized AMPARs is accompanied by a net decrease in surface-expressed receptor clusters at synapses. At various intervals after DHPG washout, cells were fixed and surface GluR2 or GluR1 was labeled with N-terminal antibodies without permeabilization. The cultures were then permeabilized, and synapses were labeled using an antibody against the presynaptic marker synapsin I or synaptophysin coupled to the appropriate secondary antibody. Under control conditions, most synapses were immunoreactive for AMPAR clusters (GluR2, 80.6±9.0%; n=10 cells, 200 synapses, FIGS. 5A-D; GluR1, 72.5±4.7%; n=15 cells, 225 synapses; FIGS. 5E and F).
Following experimental treatment, low-density cultures were fixed in 4% paraformaldehyde with 4% sucrose for 5 min. Cultures were rinsed in PBS and then blocked in PBS with 20% fetal bovine serum for 1 h. Cultures were stained with N-terminal receptor antibodies overnight at 4° C. (GluR2, 1:100, Chemicon, Ternecula, California; GluR1, 1:100, gift of R. Huganir; NR1, 1:500, Chemicon MAB363; GABAAβ1, 1:100 Santa Cruz Biologicals, Santa Cruz, Calif.). Cultures were then rinsed in blocking buffer containing 0.1% Triton-X for 20 min and exposed to antibodies directed against presynaptic proteins (synapsin 1, 1:1000, Chemicon; synaptophysin, 1:100, Boehringer Manheim, Irvine, Calif.) for 1 h at room temperature. Cultures were then rinsed and exposed to the appropriate fluorescent secondary antibodies (Jackson Immunoresearch, West Grove, Pa.).
Microscopy was performed with a Nikon E800 microscope using a 60×1.4 NA objective (Melville, N.Y.). Fluorescence images were collected with a Sensys cooled CCD camera and analyzed using IP-Labs software. Additional images were collected with a Olympus Flowview confocal microscope with a 60×1.2 NA objective. All analyses were performed blind to the stimulation history of the culture. Microscopic fields had 1-3 neurons displaying smooth soma and generally healthy morphology with multiple distinct processes. Immunofluorescence was analyzed along the proximal 50 μm of 3 or more dendrites per neuron. Immunoreactive puncta were defined as discrete points along the dendrite with fluorescence intensity twice the background staining of the neuron. Five cells were analyzed per culture and 3-6 cultures were analyzed per condition. Separate controls were performed with each experiment and a Student's t-test was used to determine statistical significance. Data are expressed as puncta per 10 μm of dendrite unless stated otherwise.

N[C@H](CCCP(=O)(O)O)C(=O)O [AP5, D-2-amino-5-phosphonopentanoic acid]
effect on the magnitude of DHPG-LTD (in words) ([1]; AP5 50 μM): no effect
magnitude of DHPG-LTD in the presence of AP5 ([1]; AP5 50 μM preincubation, DHPG 50 μM, 5 min): 83±3%
effect on DHPG/mGluR-stimulated internalization of GluR1 (in words) ([2]; LY344545 100 μM): no effect

N[C@](CC1c2ccccc2Oc2ccccc21)(C(=O)O)[C@@H]1C[C@H]1C(=O)O [LY344545]
internalized GluR1 puncta, LY344545 experiment ([2]; DHPG 50 μM, 5 min, LY344545 100 μM): 0.32±0.08 puncta per 10 μm of dendrite
effect on DHPG/mGluR-stimulated internalization of GluR1 (in words) ([2]; LY344545 100 μM): completely blocked

COc1ccc(C[C@H]2NC[C@H](O)[C@H]2OC(C)=O)cc1 [anisomycin]
effect on DHPG/mGluR-stimulated internalization of GluR1 (in words) ([2]; LY344545 100 μM): blocked
effect on basal levels of internalized puncta (in words) [2]: Neither cycloheximide nor anisomycin had any significant effect

C[C@@H]1C[C@@H]([C@H](O)CC2CC(=O)NC(=O)C2)C(=O)[C@@H](C)C1 [cycloheximide]
surface NR1 (surface/total), % of the value in control cultures [3]: 79.1±14.5%
effect on DHPG/mGluR-stimulated internalization of GluR1 (in words) ([2]; LY344545 100 μM): significantly inhibited; also recorded: decreases
internalized GluR1 puncta, cycloheximide experiment ([2]; measured at 60 minutes, chx 60 μM applied 15 min before DHPG): 0.76±0.09 puncta per 10 μm of dendrite
effect on basal levels of internalized puncta (in words) [2]: Neither cycloheximide nor anisomycin had any significant effect
GluR1-positive synapses ([4]; 15 min after DHPG): 37.8±3.8%
GluR1-positive synapses ([4]; 60 min after DHPG): 55.7±5.1%
NR1-positive synapses ([4]; 60 minutes after DHPG treatment, with cycloheximide where named): 42+5%

N[C@@H](Cn1oc(=O)[nH]c1=O)C(=O)O [quisqualic acid]
LTD of FP, % of baseline ([1]; quisqualic acid 5 μM, 5 min): 81±2%
LTD induced with quisqualic acid in the presence of AP5 ([1]; quisqualic acid 5 μM, with AP5): 79±2%
